Reference: ChEMBL document CHEMBL1128974, “Design, synthesis and X-ray crystallographic studies of [7.3.1] and [8.3.1] macrocyclic FKBP-12 ligands” (Bioorg Med Chem Lett, 1996)
pKi: −log10 of the molar value.

What follows are compounds tested against T1, Peptidyl-prolyl cis-trans isomerase FKBP1A (Homo sapiens, UniProt P62942) (assay: Compound was evaluated for inhibitory activity against human FKBP-12 rotamase; no inhibition).
T1 sequence (P62942 whole entry): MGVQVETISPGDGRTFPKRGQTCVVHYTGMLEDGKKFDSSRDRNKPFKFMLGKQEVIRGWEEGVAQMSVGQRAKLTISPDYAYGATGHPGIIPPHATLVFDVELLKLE

Row | Ki | SMILES
1 | Not Active | CO[C@@H](CC(C)C)[C@@H]1CC[C@@H](C)[C@](O)(C(=O)C(=O)N2[C@@H]3CCC[C@H]2C(=O)OCC(COCc2ccccc2)COC3=O)C1 (stereo not given in full)
2 | Not Active | CO[C@@H](CC(C)C)[C@@H]1CC[C@@H](C)[C@](O)(C(=O)C(=O)N2[C@@H]3CCC[C@H]2C(=O)OCC(CO)COC3=O)C1 (stereo not given in full)
3 | Not Active | COCC(C)[C@@H]1CC[C@@H](C)[C@](O)(C(=O)C(=O)N2[C@@H]3CCC[C@H]2C(=O)OCC(COCc2ccccc2)COC3=O)C1 (stereo not given in full)

These compounds were tested against T1, Peptidyl-prolyl cis-trans isomerase FKBP1A (assay: Compound was evaluated for inhibitory activity against human FKBP-12 rotamase).

Row | SMILES | pKi
4 | CCC(C)(C)C(=O)C(=O)N1[C@@H]2CCC[C@H]1C(=O)OCCCOC2=O | 5.00
5 | COCC(C)[C@@H]1CC[C@@H](C)[C@](O)(C(=O)C(=O)N2[C@@H]3CCC[C@H]2C(=O)OCC(CO)COC3=O)C1 (stereo not given in full) | < 4.30

The remaining lines, values ahead:

Row | pKi | SMILES
6 | 5.08 | CCC(C)(C)C(=O)C(=O)N1[C@@H]2CCC[C@H]1C(=O)OCCCCOC2=O
7 | 5.09 | CC(C)[C@@H]1CC[C@@H](C)[C@](O)(C(=O)C(=O)N2[C@@H]3CCC[C@H]2C(=O)OCCCOC3=O)C1
8 | 5.82 | COc1cc(C(=O)C(=O)N2[C@@H]3CCC[C@H]2C(=O)OCC(CO[Si](C)(C)C(C)(C)C)COC3=O)cc(OC)c1OC (stereo not given in full)
9 | 5.92 | COc1cc(C(=O)C(=O)N2[C@@H]3CCC[C@H]2C(=O)OCC(COCc2ccccc2)COC3=O)cc(OC)c1OC (stereo not given in full)
10 | 6.55 | COc1cc(C(=O)C(=O)N2[C@@H]3CCC[C@H]2C(=O)OCCCCOC3=O)cc(OC)c1OC
